Experimental data: patent publication US11485987B2, “Methods for inducing bioorthogonal reactivity” (University of Delaware, priority 2015, dated 2022)
Positions count from the first letter of the chain named.

What was measured:
[1] = Fe-porphyrin catalyzed oxidation of DHTz; conditions: DHTz 35 uM in PBS pH 7.4, air
Experimental: 4-Oxo-4-((6-(6-(pyridin-2-yl)-1,4-dihydro-1,2,4,5-tetrazin-3-yl)pyridin-3-yl)amino)butanoic acid (35 uM in PBS (pH 7.4), 2 mL) was placed in a 1 cm×1 cm cuvette with a strongly stirred magnetic stir bar in an atmosphere of air. A solution of Fe-TMPyP (50 uM in PBS (pH 7.4), 20 uL) was added to the cuvette. The reaction was monitored by a UV-Vis spectrometer at 280 nm and 325 nm.
4-Oxo-4-((6-(6-(pyridin-2-yl)-1,4-dihydro-1,2,4,5-tetrazin-3-yl)pyridin-3-yl)amino)butanoic acid (35 uM in PBS (pH 7.4), 2 mL) was placed in a 1 cm×1 cm cuvette with a strongly stirred magnetic stir bar in an atmosphere of air. A solution of Fe-TPPS (50 uM in PBS (pH 7.4), 20 uL) was added to the cuvette. The reaction was monitored by a UV-Vis spectrometer at 280 nm and 325 nm.

[2] = molecular target: T1, APEX2 (SEQ ID NO:1) (Glycine max, UniProt Q43758, A134P/E112K/K14D/W41F); test: Oxidation of DHT by APEX2, UV-Vis initial rates and kinetic parameters; format: biochemical; conditions: for Initial rate of oxidation of DHT by APEX2 (SEQ ID NO: 1) / Initial rate of oxidation of DHT by APEX2 (SEQ ID NO: 1) + SOD: PBS, 100 μM EDTA, first 100 s; for Initial rate of oxidation of DHT by APEX2 (SEQ ID NO: 1) + SOD: SOD 1 μM
T1 sequence (Q43758 1-250 A134P/E112K/K14D/W41F): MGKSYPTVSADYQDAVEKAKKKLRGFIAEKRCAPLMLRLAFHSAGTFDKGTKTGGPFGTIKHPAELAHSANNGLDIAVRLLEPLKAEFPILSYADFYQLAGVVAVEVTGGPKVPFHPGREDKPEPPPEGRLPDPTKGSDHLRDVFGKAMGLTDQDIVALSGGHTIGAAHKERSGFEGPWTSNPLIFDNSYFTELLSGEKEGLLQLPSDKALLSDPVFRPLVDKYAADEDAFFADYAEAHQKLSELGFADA
Experimental: (§1) UV-Vis and fluorescence measurements were conducted in quartz cuvettes. All reactions were conducted in phosphate buffered saline (PBS) containing 100 μM EDTA with a pH=7.4. The PBS was prepared by adding 25 mM phosphate salts (Na2HPO4 and NaH2PO4), 100 mM NaCl, 100 μM EDTA to DI water. EDTA was added to quench free metals that can oxidize DHT. The buffer was pH adjusted to 7.4 using 1 mM HCl and 1 mM NaOH. UV experiments were stirred at 25° C. in a temperature-controlled cuvette holder of the spectrophotometer. Solutions of 15 or 16 were prepared from methanol stock solutions.
15 or 16 (60 μM) from methanol stock solutions was added to PBS containing 100 μM EDTA. After 10s, APEX2 (SEQ ID NO:1) (275 nM) was dosed in and oxidation was monitored at 325 nm for 15 and 285 nm for 16 at 60s intervals (FIG. 10B-C).
16 (15 μM) DHT from methanol stock solutions was added to PBS containing 100 μM EDTA. After 10s, APEX2 (SEQ ID NO:1) (275 nM) or HRP (15 nM) was dosed in and oxidation was monitored at 285 nm at 10s intervals (FIG. 10D)
(§2) SOD (1 μM) was added to PBS containing 100 μM EDTA. 15 or 16 (60 μM) was added from methanol stock solutions. After 10s, APEX2 (SEQ ID NO:1) or F41A APEX2 (275 nM) was dosed in and oxidation was monitored at 325 nm for 15 and 285 nm for 16 at 60s intervals.
(§3) The initial rate of oxidation was calculated from the first 100 seconds after APEX2 (SEQ ID NO:1) or F41A APEX2 was added ([…]). In the assays where SOD was added, SOD (1 μM) was added to PBS containing 100 μM EDTA and 15 or 16 was dosed in. 10 seconds later, APEX2 (SEQ ID NO:1) or F41A APEX2 ([…]) was added and the rate of oxidation was calculated from the first 100 seconds after APEX2 (SEQ ID NO:1) or F41A APEX2 ([…]) addition. The initial rate of oxidation was adjusted to background oxidation of DHT in PBS with 100 μM EDTA. Kinetic parameters (Table 2) were determined using GraphPad's Prism 6 software from the data presented below (Table 3-4).

[3] = molecular target: T2, F41A APEX2 (Glycine max, UniProt Q43758, A134P/E112K/K14D/W41A); test: Oxidation of DHT by F41A APEX2, UV-Vis initial rates and kinetic parameters; format: biochemical; conditions: for Initial rate of oxidation of DHT by F41A APEX2 + SOD: SOD 1 μM, PBS, 100 μM EDTA, first 100 s
T2 sequence (Q43758 1-250 A134P/E112K/K14D/W41A): T1 sequence (Q43758 1-250 A134P/E112K/K14D/W41F) with F41A
Experimental: as §1, §2, §3

O=C(O)CCC(=O)Nc1ccc(C2=NNC(c3ccccn3)=NN2)nc1 [3a, 4-oxo-4-((6-(6-(pyridin-2-yl)-1,4-dihydro-1,2,4,5-tetrazin-3-yl)pyridin-3-yl)amino)butanoic Acid]
time to 50% completion of oxidation ([1]; Fe-TMPyP): ≤ 1 min | time to 95% completion of oxidation ([1]; Fe-TMPyP): ≤ 5 min | time to 50% completion of oxidation ([1]; Fe-TPPS): ≤ 5 min

O=C(O)CCCC(=O)Nc1ccc(C2=NNC(c3ccccn3)=NN2)nc1 [compound 15]
rate of catalysis by APEX2 slower than by HRP ([2]; APEX2 versus HRP (FIG. 10D)): approximately 100 × | Initial rate of oxidation of DHT by APEX2 (SEQ ID NO: 1) ([2]; DHT 5 μM): 0.903 +/− 0.026 ×10^−8 M/s | Initial rate of oxidation of DHT by APEX2 (SEQ ID NO: 1) + SOD ([2]; DHT 6 μM): 1.104 +/− 0.028 ×10^−8 M/s | Initial rate of oxidation of DHT by APEX2 (SEQ ID NO: 1) ([2]; DHT 10 μM): 1.286 +/− 0.141 ×10^−8 M/s | Initial rate of oxidation of DHT by APEX2 (SEQ ID NO: 1) + SOD ([2]; DHT 12 μM): 1.831 +/− 0.169 ×10^−8 M/s | Initial rate of oxidation of DHT by APEX2 (SEQ ID NO: 1) ([2]; DHT 15 μM): 1.442 +/− 0.298 ×10^−8 M/s | Initial rate of oxidation of DHT by APEX2 (SEQ ID NO: 1) + SOD ([2]; DHT 15 μM): 1.765 +/− 0.172 ×10^−8 M/s | Initial rate of oxidation of DHT by APEX2 (SEQ ID NO: 1) ([2]; DHT 20 μM): 1.872 +/− 0.028 ×10^−8 M/s | Initial rate of oxidation of DHT by APEX2 (SEQ ID NO: 1) + SOD ([2]; DHT 20 μM): 2.166 +/− 0.201 ×10^−8 M/s | Initial rate of oxidation of DHT by APEX2 (SEQ ID NO: 1) ([2]; DHT 25 μM): 1.628 +/− 0.133 ×10^−8 M/s | Initial rate of oxidation of DHT by APEX2 (SEQ ID NO: 1) + SOD ([2]; DHT 25 μM): 2.937 +/− 0.487 ×10^−8 M/s | Initial rate of oxidation of DHT by APEX2 (SEQ ID NO: 1) ([2]; DHT 30 μM): 1.878 +/− 0.055 ×10^−8 M/s | Initial rate of oxidation of DHT by APEX2 (SEQ ID NO: 1) + SOD ([2]; DHT 30 μM): 2.418 +/− 0.038 ×10^−8 M/s | Initial rate of oxidation of DHT by APEX2 (SEQ ID NO: 1) ([2]; DHT 40 μM): 2.305 +/− 0.101 ×10^−8 M/s | Initial rate of oxidation of DHT by APEX2 (SEQ ID NO: 1) + SOD ([2]; DHT 40 μM): 3.230 +/− 0.348 ×10^−8 M/s | Initial rate of oxidation of DHT by APEX2 (SEQ ID NO: 1) ([2]; DHT 50 μM): 2.445 +/− 0.303 ×10^−8 M/s | Initial rate of oxidation of DHT by APEX2 (SEQ ID NO: 1) + SOD ([2]; DHT 50 μM): 3.305 +/− 0.436 ×10^−8 M/s | Initial rate of oxidation of DHT by APEX2 (SEQ ID NO: 1) ([2]; DHT 60 μM): 2.603 +/− 0.306 ×10^−8 M/s | Initial rate of oxidation of DHT by APEX2 (SEQ ID NO: 1) + SOD ([2]; DHT 60 μM): 4.169 +/− 0.242 ×10^−8 M/s | Initial rate of oxidation of DHT by APEX2 (SEQ ID NO: 1) ([2]; DHT 70 μM): 3.197 +/− 0.025 ×10^−8 M/s | Initial rate of oxidation of DHT by APEX2 (SEQ ID NO: 1) ([2]; DHT 75 μM): 3.460 +/− 0.492 ×10^−8 M/s | Initial rate of oxidation of DHT by APEX2 (SEQ ID NO: 1) + SOD ([2]; DHT 75 μM): 4.196 +/− 0.444 ×10^−8 M/s | Initial rate of oxidation of DHT by APEX2 (SEQ ID NO: 1) ([2]; DHT 85 μM): 3.978 +/− 0.119 ×10^−8 M/s | Initial rate of oxidation of DHT by APEX2 (SEQ ID NO: 1) + SOD ([2]; DHT 85 μM): 4.939 +/− 0.202 ×10^−8 M/s | Initial rate of oxidation of DHT by F41A APEX2 + SOD ([3]; DHT 5 μM): 1.080 +/− 0.113 ×10^−8 M/s | Initial rate of oxidation of DHT by F41A APEX2 + SOD ([3]; DHT 10 μM): 2.625 +/− 0.177 ×10^−8 M/s | Initial rate of oxidation of DHT by F41A APEX2 + SOD ([3]; DHT 15 μM): 2.549 +/− 0.145 ×10^−8 M/s | Initial rate of oxidation of DHT by F41A APEX2 + SOD ([3]; DHT 20 μM): 3.629 +/− 0.413 ×10^−8 M/s | Initial rate of oxidation of DHT by F41A APEX2 + SOD ([3]; DHT 25 μM): 3.863 +/− 0.163 ×10^−8 M/s | Initial rate of oxidation of DHT by F41A APEX2 + SOD ([3]; DHT 30 μM): 5.019 +/− 0.089 ×10^−8 M/s | Initial rate of oxidation of DHT by F41A APEX2 + SOD ([3]; DHT 40 μM): 5.758 +/− 0.855 ×10^−8 M/s | Initial rate of oxidation of DHT by F41A APEX2 + SOD ([3]; DHT 50 μM): 5.978 +/− 0.304 ×10^−8 M/s | Initial rate of oxidation of DHT by F41A APEX2 + SOD ([3]; DHT 60 μM): 7.688 +/− 0.698 ×10^−8 M/s | Initial rate of oxidation of DHT by F41A APEX2 + SOD ([3]; DHT 70 μM): 7.685 +/− 0.869 ×10^−8 M/s | Initial rate of oxidation of DHT by F41A APEX2 + SOD ([3]; DHT 75 μM): 10.059 +/− 0.594 ×10^−8 M/s | Initial rate of oxidation of DHT by F41A APEX2 + SOD ([3]; DHT 85 μM): 12.425 +/− 0.046 ×10^−8 M/s | factor of increase of rate of catalysis versus APEX2 (SEQ ID NO:1) ([3]; F41A APEX2 mutant with SOD): 7
